According to patent publication US8772480B2, “Inhibitors of PI3 kinase and/or mTOR” (priority 2009, dated 2014):

Columns and labels:
Type in all cases: biochemical
[1] = target: ProfilerPro Kinase Selectivity Assay Kit kinases (Homo sapiens, UniProt O00141); conditions: SGK1; 1 μM compound concentration
[2] = target: ProfilerPro Kinase Selectivity Assay Kit kinases (Homo sapiens, UniProt O14965); conditions: AURORA A; 1 μM compound concentration
[3] = target: ProfilerPro Kinase Selectivity Assay Kit kinases (Homo sapiens, UniProt O75582); conditions: MSK1; 1 μM compound concentration
[4] = target: ProfilerPro Kinase Selectivity Assay Kit kinases (Homo sapiens, UniProt O96017); conditions: CHK2; 1 μM compound concentration
[5] = target: ProfilerPro Kinase Selectivity Assay Kit kinases (Homo sapiens, UniProt P00519); conditions: ABL; 1 μM compound concentration
[6] = target: ProfilerPro Kinase Selectivity Assay Kit kinases (Homo sapiens, UniProt P04049); conditions: cRAF; 1 μM compound concentration
[7] = target: ProfilerPro Kinase Selectivity Assay Kit kinases (Homo sapiens, UniProt P06239); conditions: LCK; 1 μM compound concentration
[8] = target: ProfilerPro Kinase Selectivity Assay Kit kinases (Homo sapiens, UniProt P06241); conditions: FYN; 1 μM compound concentration
Chain of ProfilerPro Kinase Selectivity Assay Kit kinases (Homo sapiens, UniProt P06241) (P06241 2-537 limits assumed): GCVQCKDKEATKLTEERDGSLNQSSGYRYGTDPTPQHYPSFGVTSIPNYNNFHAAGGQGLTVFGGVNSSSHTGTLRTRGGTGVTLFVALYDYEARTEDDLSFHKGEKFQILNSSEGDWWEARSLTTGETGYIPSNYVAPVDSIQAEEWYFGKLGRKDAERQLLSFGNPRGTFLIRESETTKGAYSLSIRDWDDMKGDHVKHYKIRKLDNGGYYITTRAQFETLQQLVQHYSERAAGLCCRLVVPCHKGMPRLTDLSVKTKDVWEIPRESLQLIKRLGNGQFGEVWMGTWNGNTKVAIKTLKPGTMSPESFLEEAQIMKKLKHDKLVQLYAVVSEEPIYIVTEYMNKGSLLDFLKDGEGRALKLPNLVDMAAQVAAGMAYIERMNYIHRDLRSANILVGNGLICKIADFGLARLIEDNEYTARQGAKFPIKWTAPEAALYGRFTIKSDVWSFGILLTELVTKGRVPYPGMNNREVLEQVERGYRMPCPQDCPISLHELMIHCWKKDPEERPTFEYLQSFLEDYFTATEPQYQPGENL

[9] = target: ProfilerPro Kinase Selectivity Assay Kit kinases (Homo sapiens, UniProt P07948); conditions: LYN; 1 μM compound concentration
[10] = target: ProfilerPro Kinase Selectivity Assay Kit kinases (Homo sapiens, UniProt P08069); conditions: IGF1R; 1 μM compound concentration
[11] = target: ProfilerPro Kinase Selectivity Assay Kit kinases (Homo sapiens, UniProt P08581); conditions: cMET; 1 μM compound concentration
Chain of ProfilerPro Kinase Selectivity Assay Kit kinases (Homo sapiens, UniProt P08581) (P08581 25-1390 limits assumed): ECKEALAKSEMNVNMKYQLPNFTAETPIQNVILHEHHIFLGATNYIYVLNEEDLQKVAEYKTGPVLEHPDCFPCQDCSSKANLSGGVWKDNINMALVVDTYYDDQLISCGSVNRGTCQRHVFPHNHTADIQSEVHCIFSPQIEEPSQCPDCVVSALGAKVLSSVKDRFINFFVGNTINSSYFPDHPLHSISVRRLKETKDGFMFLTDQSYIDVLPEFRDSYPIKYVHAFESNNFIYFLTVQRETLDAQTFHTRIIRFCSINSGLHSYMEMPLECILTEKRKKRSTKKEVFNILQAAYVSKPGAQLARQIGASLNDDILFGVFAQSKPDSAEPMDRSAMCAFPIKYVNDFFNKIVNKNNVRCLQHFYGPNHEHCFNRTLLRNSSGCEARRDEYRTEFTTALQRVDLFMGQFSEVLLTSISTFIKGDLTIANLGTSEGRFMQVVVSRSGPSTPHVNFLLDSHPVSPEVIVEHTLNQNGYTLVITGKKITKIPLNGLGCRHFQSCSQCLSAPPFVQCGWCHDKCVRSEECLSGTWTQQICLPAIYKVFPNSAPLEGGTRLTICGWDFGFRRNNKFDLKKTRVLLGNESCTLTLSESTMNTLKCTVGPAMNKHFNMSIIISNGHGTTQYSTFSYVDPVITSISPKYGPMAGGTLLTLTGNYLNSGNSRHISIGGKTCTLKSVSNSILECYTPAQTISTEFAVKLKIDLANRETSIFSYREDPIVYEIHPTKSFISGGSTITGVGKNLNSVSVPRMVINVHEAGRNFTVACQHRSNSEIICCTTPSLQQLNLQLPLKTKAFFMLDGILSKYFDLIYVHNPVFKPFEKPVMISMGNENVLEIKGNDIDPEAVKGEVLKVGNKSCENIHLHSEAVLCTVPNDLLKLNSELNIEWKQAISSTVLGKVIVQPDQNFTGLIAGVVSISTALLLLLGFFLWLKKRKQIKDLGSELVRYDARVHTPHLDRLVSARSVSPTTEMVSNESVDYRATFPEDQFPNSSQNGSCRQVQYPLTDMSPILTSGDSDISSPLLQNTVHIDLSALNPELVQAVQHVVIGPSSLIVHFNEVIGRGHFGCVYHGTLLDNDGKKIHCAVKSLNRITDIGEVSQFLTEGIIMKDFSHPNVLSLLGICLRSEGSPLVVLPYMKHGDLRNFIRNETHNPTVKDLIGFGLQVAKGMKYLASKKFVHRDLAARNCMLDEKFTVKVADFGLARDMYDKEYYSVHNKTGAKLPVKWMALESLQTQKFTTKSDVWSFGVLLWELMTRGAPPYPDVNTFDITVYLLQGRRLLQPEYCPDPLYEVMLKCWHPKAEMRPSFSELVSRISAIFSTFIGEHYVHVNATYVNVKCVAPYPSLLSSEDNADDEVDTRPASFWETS

[12] = target: ProfilerPro Kinase Selectivity Assay Kit kinases (Homo sapiens, UniProt P11362); conditions: FGFR1; 1 μM compound concentration
Chain of ProfilerPro Kinase Selectivity Assay Kit kinases (Homo sapiens, UniProt P11362) (P11362 22-822 limits assumed): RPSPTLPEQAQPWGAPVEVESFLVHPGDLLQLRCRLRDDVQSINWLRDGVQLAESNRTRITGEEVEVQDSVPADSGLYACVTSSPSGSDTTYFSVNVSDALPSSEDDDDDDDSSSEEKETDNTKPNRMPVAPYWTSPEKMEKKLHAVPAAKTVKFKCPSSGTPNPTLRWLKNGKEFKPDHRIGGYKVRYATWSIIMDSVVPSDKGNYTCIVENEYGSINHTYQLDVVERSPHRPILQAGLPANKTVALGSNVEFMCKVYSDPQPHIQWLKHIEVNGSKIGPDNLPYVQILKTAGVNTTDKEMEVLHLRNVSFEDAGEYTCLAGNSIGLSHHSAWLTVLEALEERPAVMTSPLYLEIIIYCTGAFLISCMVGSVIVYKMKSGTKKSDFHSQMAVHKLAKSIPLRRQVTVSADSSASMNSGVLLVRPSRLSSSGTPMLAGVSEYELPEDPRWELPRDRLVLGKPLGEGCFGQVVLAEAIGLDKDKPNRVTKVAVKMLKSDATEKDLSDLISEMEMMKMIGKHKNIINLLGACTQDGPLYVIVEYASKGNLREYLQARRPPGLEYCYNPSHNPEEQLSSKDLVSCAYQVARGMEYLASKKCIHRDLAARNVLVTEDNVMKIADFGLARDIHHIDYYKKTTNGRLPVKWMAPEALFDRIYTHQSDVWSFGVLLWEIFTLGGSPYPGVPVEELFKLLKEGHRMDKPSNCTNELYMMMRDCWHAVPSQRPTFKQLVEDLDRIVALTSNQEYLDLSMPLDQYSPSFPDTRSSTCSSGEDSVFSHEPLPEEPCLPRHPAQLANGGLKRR

[13] = target: ProfilerPro Kinase Selectivity Assay Kit kinases (Homo sapiens, UniProt P12931); conditions: SRC; 1 μM compound concentration
Chain of ProfilerPro Kinase Selectivity Assay Kit kinases (Homo sapiens, UniProt P12931) (P12931 2-536 limits assumed): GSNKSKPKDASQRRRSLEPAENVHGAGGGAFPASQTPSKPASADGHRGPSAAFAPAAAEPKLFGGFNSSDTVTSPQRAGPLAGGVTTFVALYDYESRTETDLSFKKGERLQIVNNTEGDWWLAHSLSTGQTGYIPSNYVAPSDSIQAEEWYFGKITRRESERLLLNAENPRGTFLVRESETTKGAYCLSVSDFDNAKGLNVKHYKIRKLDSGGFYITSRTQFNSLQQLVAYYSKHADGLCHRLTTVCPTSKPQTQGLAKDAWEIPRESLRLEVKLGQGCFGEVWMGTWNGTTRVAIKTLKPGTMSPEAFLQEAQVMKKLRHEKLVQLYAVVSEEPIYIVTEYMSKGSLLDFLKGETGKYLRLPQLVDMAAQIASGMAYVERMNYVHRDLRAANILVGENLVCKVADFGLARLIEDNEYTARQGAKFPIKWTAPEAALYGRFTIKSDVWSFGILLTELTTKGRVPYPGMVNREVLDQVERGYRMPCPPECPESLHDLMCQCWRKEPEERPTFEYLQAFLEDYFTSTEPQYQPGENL

[14] = target: ProfilerPro Kinase Selectivity Assay Kit kinases (Homo sapiens, UniProt P23443); conditions: p70S6K; 1 μM compound concentration
[15] = target: ProfilerPro Kinase Selectivity Assay Kit kinases (Homo sapiens, UniProt P24941); conditions: CDK2; 1 μM compound concentration
[16] = target: ProfilerPro Kinase Selectivity Assay Kit kinases (Homo sapiens, UniProt P27361); conditions: ERK1; 1 μM compound concentration
Chain of ProfilerPro Kinase Selectivity Assay Kit kinases (Homo sapiens, UniProt P27361) (P27361 2-379 limits assumed): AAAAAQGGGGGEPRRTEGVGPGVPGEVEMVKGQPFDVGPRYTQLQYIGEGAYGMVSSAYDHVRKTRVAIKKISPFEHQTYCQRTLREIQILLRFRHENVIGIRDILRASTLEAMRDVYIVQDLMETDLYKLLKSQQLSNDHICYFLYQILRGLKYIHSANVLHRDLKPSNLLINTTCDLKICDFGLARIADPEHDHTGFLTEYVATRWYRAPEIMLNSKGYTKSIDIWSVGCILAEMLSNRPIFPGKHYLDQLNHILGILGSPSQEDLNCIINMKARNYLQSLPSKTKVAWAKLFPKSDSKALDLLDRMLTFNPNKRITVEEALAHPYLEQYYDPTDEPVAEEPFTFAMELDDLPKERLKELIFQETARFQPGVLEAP

[17] = target: ProfilerPro Kinase Selectivity Assay Kit kinases (Homo sapiens, UniProt P28482); conditions: ERK2; 1 μM compound concentration
Chain of ProfilerPro Kinase Selectivity Assay Kit kinases (Homo sapiens, UniProt P28482) (P28482 2-360 limits assumed): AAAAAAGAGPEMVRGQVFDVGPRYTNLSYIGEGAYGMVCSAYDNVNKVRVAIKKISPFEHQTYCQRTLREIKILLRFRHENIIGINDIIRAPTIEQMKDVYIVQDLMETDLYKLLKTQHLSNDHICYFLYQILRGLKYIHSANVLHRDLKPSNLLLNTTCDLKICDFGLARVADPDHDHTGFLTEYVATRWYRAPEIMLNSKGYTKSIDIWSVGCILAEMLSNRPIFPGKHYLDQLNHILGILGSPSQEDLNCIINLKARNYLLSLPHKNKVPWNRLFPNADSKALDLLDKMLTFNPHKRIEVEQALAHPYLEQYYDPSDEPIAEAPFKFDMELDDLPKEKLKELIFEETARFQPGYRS

[18] = target: ProfilerPro Kinase Selectivity Assay Kit kinases (Homo sapiens, UniProt P31749); conditions: AKT1; 1 μM compound concentration
[19] = target: ProfilerPro Kinase Selectivity Assay Kit kinases (Homo sapiens, UniProt P35968); conditions: KDR; 1 μM compound concentration
[20] = target: ProfilerPro Kinase Selectivity Assay Kit kinases (Homo sapiens, UniProt P36888); conditions: FLT3; 1 μM compound concentration
Chain of ProfilerPro Kinase Selectivity Assay Kit kinases (Homo sapiens, UniProt P36888) (P36888 27-993 limits assumed): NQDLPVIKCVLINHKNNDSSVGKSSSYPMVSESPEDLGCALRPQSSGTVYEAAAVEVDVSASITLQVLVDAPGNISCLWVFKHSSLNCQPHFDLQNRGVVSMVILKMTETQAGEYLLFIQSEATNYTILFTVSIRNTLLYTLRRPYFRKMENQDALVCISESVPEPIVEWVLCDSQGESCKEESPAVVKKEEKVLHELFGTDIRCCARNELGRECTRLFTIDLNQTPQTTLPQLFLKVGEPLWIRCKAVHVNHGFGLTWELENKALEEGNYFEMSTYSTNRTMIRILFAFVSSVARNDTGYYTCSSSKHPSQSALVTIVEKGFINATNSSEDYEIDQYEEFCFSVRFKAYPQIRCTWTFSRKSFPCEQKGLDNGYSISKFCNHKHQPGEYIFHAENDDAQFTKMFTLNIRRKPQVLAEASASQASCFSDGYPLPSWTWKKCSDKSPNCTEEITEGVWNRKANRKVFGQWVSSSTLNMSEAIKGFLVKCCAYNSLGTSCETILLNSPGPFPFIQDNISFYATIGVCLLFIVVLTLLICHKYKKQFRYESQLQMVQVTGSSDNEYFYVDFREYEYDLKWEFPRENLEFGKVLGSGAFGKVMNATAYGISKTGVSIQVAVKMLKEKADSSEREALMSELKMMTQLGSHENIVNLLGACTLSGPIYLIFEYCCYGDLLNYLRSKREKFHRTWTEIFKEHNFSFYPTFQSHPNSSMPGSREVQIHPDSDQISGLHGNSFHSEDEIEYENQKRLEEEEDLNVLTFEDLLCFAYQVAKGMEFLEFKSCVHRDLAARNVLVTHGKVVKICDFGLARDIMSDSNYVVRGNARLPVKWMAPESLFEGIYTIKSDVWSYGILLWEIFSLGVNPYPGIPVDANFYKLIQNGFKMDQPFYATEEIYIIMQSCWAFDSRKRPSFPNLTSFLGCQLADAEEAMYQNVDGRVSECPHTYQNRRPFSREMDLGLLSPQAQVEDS

[21] = target: ProfilerPro Kinase Selectivity Assay Kit kinases (Homo sapiens, UniProt P43405); conditions: SYK; 1 μM compound concentration
[22] = target: ProfilerPro Kinase Selectivity Assay Kit kinases (Homo sapiens, UniProt P49841); conditions: GSK3 beta; 1 μM compound concentration
[23] = target: ProfilerPro Kinase Selectivity Assay Kit kinases (Homo sapiens, UniProt Q05513); conditions: PKC zeta; 1 μM compound concentration
[24] = target: ProfilerPro Kinase Selectivity Assay Kit kinases (Homo sapiens, UniProt Q13188); conditions: MST2; 1 μM compound concentration
[25] = target: ProfilerPro Kinase Selectivity Assay Kit kinases (Homo sapiens, UniProt Q13627); conditions: DYRK1a; 1 μM compound concentration
[26] = target: ProfilerPro Kinase Selectivity Assay Kit kinases (Homo sapiens, UniProt Q13976); conditions: PKGa2; 1 μM compound concentration
[27] = target: ProfilerPro Kinase Selectivity Assay Kit kinases (Homo sapiens, UniProt Q15418); conditions: RSK1; 1 μM compound concentration
[28] = target: ProfilerPro Kinase Selectivity Assay Kit kinases (Homo sapiens, UniProt Q16539); conditions: p38 alpha; 1 μM compound concentration
[29] = target: ProfilerPro Kinase Selectivity Assay Kit kinases (Homo sapiens, UniProt Q16566); conditions: CAMK4; 1 μM compound concentration
[30] = target: ProfilerPro Kinase Selectivity Assay Kit kinases (Homo sapiens, UniProt Q9BZL6); conditions: PKD2; 1 μM compound concentration
[31] = tested on: ProfilerPro Kinase Selectivity Assay Kit kinases; conditions: 1 μM compound concentration

Row | POC (Percent of control) SGK1 [1] | POC (Percent of control) AURORA A [2] | POC (Percent of control) MSK1 [3] | POC (Percent of control) CHK2 [4] | POC (Percent of control) ABL [5] | POC (Percent of control) cRAF [6] | POC (Percent of control) LCK [7] | POC (Percent of control) FYN [8] | POC (Percent of control) LYN [9] | POC (Percent of control) IGF1R [10] | POC (Percent of control) cMET [11] | POC (Percent of control) FGFR1 [12] | POC (Percent of control) SRC [13] | POC (Percent of control) p70S6K [14] | POC (Percent of control) CDK2 [15] | POC (Percent of control) ERK1 [16] | POC (Percent of control) ERK2 [17] | POC (Percent of control) AKT1 [18] | POC (Percent of control) KDR [19] | POC (Percent of control) FLT3 [20] | further results | Compound
1 | 92 POC | 108 POC | 91 POC | 97 POC | 107 POC | 99 POC | 101 POC | 99 POC | 96 POC | 98 POC | 102 POC | 97 POC | 101 POC | 89 POC | 96 POC | 100 POC | 106 POC | 102 POC | 92 POC | 95 POC | POC (Percent of control) SYK [21]: 80 POC; POC (Percent of control) GSK3 beta [22]: 100 POC; POC (Percent of control) PKC zeta [23]: 109 POC; POC (Percent of control) MST2 [24]: 98 POC; POC (Percent of control) DYRK1a [25]: 88 POC; POC (Percent of control) PKGa2 [26]: 87 POC; POC (Percent of control) RSK1 [27]: 99 POC; POC (Percent of control) p38 alpha [28]: 100 POC; POC (Percent of control) CAMK4 [29]: 109 POC; POC (Percent of control) PKD2 [30]: 100 POC; POC (Percent of control) AMPK [31]: 91 POC; POC (Percent of control) CAMK2 [31]: 108 POC; POC (Percent of control) PKC beta2 [31]: 94 POC; POC (Percent of control) TAK1 [31]: 93 POC | COc1ccc(Nc2ncc(CN3CCN(C(C)=O)CC3)cc2-c2nc(C)nc3[nH]cnc23)cn1 [Example 89, 1-(4-((6-(6-methoxypyridin-3-ylamino)-5-(2-methyl-9H-purin-6-yl)pyridin-3-yl)methyl)piperazin-1-yl)ethanone]
2 | 93 POC | 100 POC | 90 POC | 106 POC | 98 POC | 95 POC | 102 POC | 97 POC | 100 POC | 80 POC | 101 POC | 99 POC | 103 POC | 97 POC | 101 POC | 93 POC | 102 POC | 102 POC | 102 POC | 99 POC | POC (Percent of control) SYK [21]: 106 POC; POC (Percent of control) GSK3 beta [22]: 104 POC; POC (Percent of control) PKC zeta [23]: 110 POC; POC (Percent of control) MST2 [24]: 98 POC; POC (Percent of control) DYRK1a [25]: 93 POC; POC (Percent of control) PKGa2 [26]: 98 POC; POC (Percent of control) RSK1 [27]: 103 POC; POC (Percent of control) p38 alpha [28]: 99 POC; POC (Percent of control) CAMK4 [29]: 94 POC; POC (Percent of control) PKD2 [30]: 98 POC; POC (Percent of control) AMPK [31]: 91 POC; POC (Percent of control) CAMK2 [31]: 103 POC; POC (Percent of control) PKC beta2 [31]: 94 POC; POC (Percent of control) TAK1 [31]: 99 POC | Cc1nc(N)nc(-c2cc(CN3CCN(S(C)(=O)=O)CC3)cnc2Nc2cccc(O)c2)n1 [Example 30, 3-(3-(4-Amino-6-Methyl-1,3,5-Triazin-2-yl)-5-((4-(Methyl Sulfonyl)Piperazin-1-yl)Methyl)Pyridin-2-Ylamino)Phenol]
3 | 85 POC | 78 POC | 94 POC | 97 POC | 104 POC | 95 POC | 101 POC | 98 POC | 91 POC | 41 POC | 95 POC | 94 POC | 89 POC | 91 POC | 84 POC | 100 POC | 97 POC | 98 POC | 81 POC | 73 POC | POC (Percent of control) SYK [21]: 83 POC; POC (Percent of control) GSK3 beta [22]: 80 POC; POC (Percent of control) PKC zeta [23]: 99 POC; POC (Percent of control) MST2 [24]: 84 POC; POC (Percent of control) DYRK1a [25]: 92 POC; POC (Percent of control) PKGa2 [26]: 90 POC; POC (Percent of control) RSK1 [27]: 89 POC; POC (Percent of control) p38 alpha [28]: 104 POC; POC (Percent of control) CAMK4 [29]: 56 POC; POC (Percent of control) PKD2 [30]: 102 POC; POC (Percent of control) AMPK [31]: 83 POC; POC (Percent of control) CAMK2 [31]: 116 POC; POC (Percent of control) PKC beta2 [31]: 166 POC; POC (Percent of control) TAK1 [31]: 102 POC | Cc1nc(N)cc(-c2cccnc2Nc2cccc3[nH]ncc23)n1 [Example 27, N-(3-(6-Amino-2-Methylpyrimidin-4-yl)Pyridin-2-yl)-1H-Indazol-4-Amine]
